According to patent EP1911451A1, “Protein-kinase CK2 inhibitors and their therapeutic applications” (INSERM (Institut National de la Santé et de la Recherche …, priority 2006, dated 2008):
Where two headings read alike, the source gives them in different places.

How the values were obtained:
CK2α [1] = target: T1, CK2α (Homo sapiens, UniProt P68400); assay: in vitro CK2 kinase assay (inhibition of catalytic activity); assay type: biochemical
Description: (§1) Lineweaver-Burk inhibition plots of CK2α in the presence of different concentrations of Quinobene (0; 0.1; 0.2; 0.4; 0.8 µM). • (A) variable concentrations of ATP with Peptide] = 500 µM. (B) variable concentrations of Peptide with [ATP] = 200 µM. […] Lineweaver-Burk inhibition plots of CK2α in the presence of different concentrations of CCB8 (0; 1.1; 2.2 µM for ATP competition assay; 0; 1.1 µM for peptide competition assay). (A) variable concentrations of ATP with [Peptide] = 166 µM. (B) variable concentrations of Peptide with [ATP] = 25 µM. […] A549 cells were treated for 48 hours with increasing concentrations of CCB8 (σ) or Naphtobene (ν). Cell viability was evaluated with the Cell Titer Glo kit (Promega).
4,4'-bis(8-hydroxy-5-sulfo-7-quinolineazo)stilbene-2,2'-disulfonic acid (Quinobene) or 4,4'-[(1-hydroxy-4-sulfo-2-naphtyl)azo] 2,2'-stilbenedisulfonic acid (Naphtobene) were obtained from the National Cancer Institute and screened for CK2 inhibitors using an in vitro CK2 kinase assay (Filhol et al., 1991).
CCB8 was tested in the in vitro CK2 assay.

CK2α [2] = target: T1, CK2α; assay: Lineweaver-Burk inhibition plots (ATP and peptide competition); assay type: biochemical; settings: for mode of inhibition: with respect to ATP or the phosphoacceptor peptide
Description: as §1

A549 cells = assay: Cancer cell viability (Cell Titer Glo kit); assay type: cell-based; settings: increasing concentrations, 48 hours
Description: as §1
A549 cells were treated with increasing concentrations of TBB 4,5,6,7-TetraBromoBenzotriazole (Calbiochem®) or Quinobene for 48 hours and the cell viability was monitored.

[3] = test system: non-small cell lung cancer cells (A549); assay: Confocal microscopic analysis of cell uptake; assay type: cell-based; settings: 100 µM, 48 hours, confocal microscopy
[4] = inhibition of CK2 catalytic activity, dose-dependent (Figure 2), read-out: half-maximal effective concentration
[5] = inhibition of the catalytic activity of recombinant CK2α, read-out: IC50

T1 sequence (P68400 whole entry): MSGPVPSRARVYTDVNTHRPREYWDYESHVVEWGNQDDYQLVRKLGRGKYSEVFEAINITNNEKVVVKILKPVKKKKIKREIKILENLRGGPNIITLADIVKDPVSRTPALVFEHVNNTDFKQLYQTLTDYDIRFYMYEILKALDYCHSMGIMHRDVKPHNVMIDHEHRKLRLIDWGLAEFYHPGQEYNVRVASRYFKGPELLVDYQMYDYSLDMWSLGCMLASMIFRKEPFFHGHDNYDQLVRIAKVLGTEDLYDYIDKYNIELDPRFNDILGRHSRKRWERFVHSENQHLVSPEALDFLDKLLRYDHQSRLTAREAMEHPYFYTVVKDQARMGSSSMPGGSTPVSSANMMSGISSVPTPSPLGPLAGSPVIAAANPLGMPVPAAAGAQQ

Row | Compound | IC50 (CK2α [1]; [4]) | IC50 (CK2α [1]; [5]) | mode of inhibition (CK2α [2]) | cell viability / proapoptotic efficacy (A549 cells) | cell permeability [3] | IC50 (CK2α [1]; inhibition of the catalytic activity of recombinant CK2α) | Ki (CK2α [2]; deduced from Lineweaver-Burk graph (Figure 5), read-out: Ki constant)
1 | O=S(=O)(O)c1cc(/N=N/c2cc(S(=O)(=O)O)c3cccnc3c2O)ccc1/C=C/c1ccc(/N=N/c2cc(S(=O)(=O)O)c3cccnc3c2O)cc1S(=O)(=O)O [Quinobene, 4,4'-bis(8-hydroxy-5-sulfo-7-quinolineazo)stilbene-2,2'-disulfonic acid] | 130 nM | 130 nM | non-competitive inhibitor | potency correlates with its proapoptotic efficacy |  |  | 
2 | O=S(=O)(O)c1cc(/N=N/c2cc(S(=O)(=O)O)c3ccccc3c2O)ccc1/C=C/c1ccc(/N=N/c2cc(S(=O)(=O)O)c3ccccc3c2O)cc1S(=O)(=O)O [Naphtobene, 4,4'-[(1-hydroxy-4-sulfo-2-naphtyl)azo] 2,2'-stilbenedisulfonic acid] | 300 nM | 300 nM |  | potency correlates with its proapoptotic efficacy | cell permeable |  | 
3 | Nc1ccc(C(=O)O)cc1N=Nc1ccc(C=Cc2ccc(N=Nc3cc(C(=O)O)ccc3N)cc2S(=O)(=O)O)c(S(=O)(=O)O)c1 [CCB8] |  |  | non-competitive inhibitor | potency correlates with its proapoptotic efficacy |  | 600 nM | 85 nM
